# Test results taken from patent US20190209712A1, “HUMANIZED MURINE MODEL OF CHRONIC HEPATITIS B CONSTRUCTED USING STEM CELLS AND METHOD OF USING SAME” (Zhejiang University, priority 2017, published 2019).
# Test system: HBV
# Assay: Efficacy of and drug resistance to antiviral drugs in humanized rat model of chronic hepatitis B (HBV viral load)
# Format: in vivo
# Details: humanized rats with chronic hepatitis B; therapeutic dose; 1, 2, 4, 8, 12 and 24 weeks after treatment; FIG. 2
# Procedure: The Study of Efficacy of and Drug Resistance to the Antiviral Drugs Using a Humanized Rat Model of Chronic Hepatitis B • 1. 200 humanized rats with chronic hepatitis B were randomly divided into four groups. There were no significant differences in age, gender, weight and baseline of HBV viral load among the groups. • 2. Therapeutic dose of commonly used antiviral drugs lamivudine, telbivudine, entecavir and tenofovir were administered to each of the four groups, respectively. • 3. At 1 week, 2 weeks, 4 weeks, 8 weeks, 12 weeks and 24 weeks after the treatment, the viral load of HBV in each group of rats was detected, respectively. • 4. Curves were plotted based on the viral load in each group at each time point. The difference between the groups was compared to evaluate the efficacy of and drug resistance to existing commonly used antiviral drugs.
row,Compound,drop of the viral titer curves (viral load of HBV)
1,C=C1[C@H](CO)[C@@H](O)C[C@@H]1n1cnc2c(=O)[nH]c(N)nc21 [entecavir],superior to those of the telbivudine group and the lamivudine group
2,C[C@H](Cn1cnc2c(N)ncnc21)OCP(=O)(O)O [tenofovir],superior to those of the telbivudine group and the lamivudine group
